Reference: ChEMBL document CHEMBL1201862, “PubChem BioAssay data set” (2004)
The source made the active and inactive calls.

What was measured:
[1] = test system: BJ; assay: BJ-TERT fibroblast viability loss – cell-based, RAS-independent, luminescence, dose response (AID 1933); format: functional; conditions: Homo sapiens
[2] = luciferase reporter signal suppression in cells – H4 neuroglioma cells, luminescence, dose response (AID 1990); format: functional, cell-based
[3] = Luminescence Cell-Based Dose Retest to Confirm Inhibitors of Cancer Stem Cells. [Related pubchem assays (depositor defined):AID2717, AID2721]; format: functional; conditions: Homo sapiens
[4] = test system: BJ; assay: growth inhibition of engineered Ras-driven BJ cells – cell-based, alamar blue fluorescence, cherrypicked samples, dose response (AID 2631); format: functional; conditions: Homo sapiens;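 further: confirmatory dose-response assay in RAS-dependent BJ fibroblasts engineered with TERT, LT and ST, with cytotoxicity read by fluorescence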
[5] = DRD fibroblast viability loss – cell-based, non-viral oncogenic, luminescence, dose response (AID 1934); format: functional; conditions: Homo sapiens
[6] = test system: BJ; assay: BJ-TERT-LT-ST fibroblast viability loss – cell-based, RAS-independent, luminescence, dose response (AID 1935); format: functional; conditions: Homo sapiens;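 further: BJ fibroblasts immortalized with TERT plus LT and ST oncogenes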
[7] = HEK-293T viability loss after treatment – luminescence, T-cell screen hits, cytotoxicity control for TCR NF-kB inhibitor project, dose response (AID 489026); format: functional, cell-based;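 further: cells exposed to compound about 14 hours before the viability readout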
[8] = Luminescence Cell-Based Dose Response HTS to Identify Inhibitors of 5'UTR Stem-Loop Driven Prion Protein mRNA Translation in H4 Neuroglioblastoma Cells. [Related pubchem assays: 1827 (Project Summary), 1813 (Primary HTS)]; format: functional
[9] = test system: BJ; assay: cells; format: functional, cell-based; conditions: Homo sapiens
[10] = molecular target: 5-hydroxytryptamine receptor 5A (Homo sapiens, UniProt P47898); assay: Counterscreen for agonists of OPRM1-OPRD1 heterodimerization: luminescence-based cell-based high throughput dose response assay to identify agonists of 5-hydroxytryptamine (serotonin) 5A receptor (HTR5A). [Related pubchem assays (depositor defined):AID504326, AID504355, AID504692, AID504904, AID504905]; format: functional
[11] = molecular target: Mu-type opioid receptor (Homo sapiens, UniProt P35372); assay: Counterscreen for agonists of heterodimerization of the mu 1 (OPRM1) and delta 1 (OPRD1) opioid receptors: Luminescence-based cell-based high throughput dose response assay to identify agonists of OPRM1 homodimerization.; format: functional;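 further: U2OS cells expressing OPRM1 and beta-arrestin as split beta-galactosidase partners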
[12] = molecular target: T1, Short transient receptor potential channel 4 (Mus musculus, UniProt Q9QUQ5); assay: calcium entry via TRPC4 opening agents – cell-based, HEK293 TRPC4/mu-opioid, Fluo-4 calcium, dose response (AID 434937); format: functional
T1 sequence (Q9QUQ5 whole entry): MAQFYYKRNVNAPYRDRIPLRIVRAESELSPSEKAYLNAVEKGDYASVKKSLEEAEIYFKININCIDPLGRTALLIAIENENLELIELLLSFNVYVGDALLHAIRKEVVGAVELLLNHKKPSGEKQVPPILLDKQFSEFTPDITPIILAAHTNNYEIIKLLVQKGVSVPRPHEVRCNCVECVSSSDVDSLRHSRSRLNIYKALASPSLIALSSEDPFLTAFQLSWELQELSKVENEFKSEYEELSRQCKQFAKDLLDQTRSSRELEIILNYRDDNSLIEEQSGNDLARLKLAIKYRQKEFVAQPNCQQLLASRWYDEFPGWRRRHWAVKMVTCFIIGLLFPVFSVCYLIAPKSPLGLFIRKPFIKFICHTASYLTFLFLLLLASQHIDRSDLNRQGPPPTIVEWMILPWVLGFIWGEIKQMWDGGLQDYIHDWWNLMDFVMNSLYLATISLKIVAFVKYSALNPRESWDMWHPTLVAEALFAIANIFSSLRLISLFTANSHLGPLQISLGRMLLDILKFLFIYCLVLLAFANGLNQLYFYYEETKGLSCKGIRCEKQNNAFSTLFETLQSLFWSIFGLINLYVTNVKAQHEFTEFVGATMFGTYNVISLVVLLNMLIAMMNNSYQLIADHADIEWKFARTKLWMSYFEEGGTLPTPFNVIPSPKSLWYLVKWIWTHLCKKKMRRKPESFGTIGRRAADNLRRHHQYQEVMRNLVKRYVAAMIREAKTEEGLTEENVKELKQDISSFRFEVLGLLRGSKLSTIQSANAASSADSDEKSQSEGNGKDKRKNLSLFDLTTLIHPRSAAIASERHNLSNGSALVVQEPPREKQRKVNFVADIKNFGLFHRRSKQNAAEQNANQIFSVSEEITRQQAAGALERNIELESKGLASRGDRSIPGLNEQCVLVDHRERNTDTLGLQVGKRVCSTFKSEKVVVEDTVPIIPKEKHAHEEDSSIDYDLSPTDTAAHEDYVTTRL

[13] = molecular target: Delta-type opioid receptor (Homo sapiens, UniProt P41143); assay: Counterscreen for agonists of heterodimerization of the mu 1 (OPRM1) and delta 1 (OPRD1) opioid receptors: Luminescence-based cell-based high throughput dose response assay to identify agonists of OPRD1 homodimerization. [Related pubchem assays (depositor defined):AID504326, AID504355, AID504692, AID504904, AID504905]; format: functional
[14] = Luminescence-based counterscreen assay for KLF5 inhibitors: dose response cell-based high throughput screening assay to identify cytotoxic compounds using the IEC-6 intestinal epithelial cell line. [Related pubchem assays: 1700 (Primary screen.), 1834 (Confirmation screen.), 1858 (Summary AID.), 1905 (Counterscreen.)]; format: functional
[15] = molecular target: T2, Heat shock factor protein 1 (Mus musculus, UniProt P38532); assay: decrease of HSF1-responsive luciferase luminescence – cell-based, NIH3T3, dose retest, confirmation (AID 2382); format: functional;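 further: NIH3T3 fibroblasts with HSF1-driven luciferase reporter stressed by proteasome inhibitor MG132; luminescence from HSF1-driven luciferase expression after 8 hours of MG132 stress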
T2 sequence (P38532 whole entry): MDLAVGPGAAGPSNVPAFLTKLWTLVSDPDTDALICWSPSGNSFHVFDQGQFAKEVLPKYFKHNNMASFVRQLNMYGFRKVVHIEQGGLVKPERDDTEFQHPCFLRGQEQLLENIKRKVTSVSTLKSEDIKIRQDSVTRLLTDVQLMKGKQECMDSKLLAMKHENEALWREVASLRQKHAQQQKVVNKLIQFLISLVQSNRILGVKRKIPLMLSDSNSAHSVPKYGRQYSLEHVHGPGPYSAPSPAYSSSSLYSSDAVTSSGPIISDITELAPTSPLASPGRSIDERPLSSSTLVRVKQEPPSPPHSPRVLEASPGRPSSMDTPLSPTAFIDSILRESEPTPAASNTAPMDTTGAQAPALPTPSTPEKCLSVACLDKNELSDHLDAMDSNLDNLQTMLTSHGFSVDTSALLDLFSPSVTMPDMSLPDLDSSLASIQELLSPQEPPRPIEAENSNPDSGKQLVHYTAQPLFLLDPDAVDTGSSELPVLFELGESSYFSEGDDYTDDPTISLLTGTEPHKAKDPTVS

[16] = reduction of Shn3 3'UTR-driven luciferase in osteoblasts – cell-based, Clone20 osteoblasts, firefly luciferase, cherry-picked, dose response (AID 624132); format: functional;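 further: firefly luciferase luminescence from reporter carrying the Shn3 3'UTR in osteoblasts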
[17] = molecular target: Paired box protein Pax-8 (Homo sapiens, UniProt Q06710); assay: PAX8 transcriptional activity inhibition in RMG-I – RMG-I cells, luciferase, cherry-pick, dose response (AID 687027); format: functional, cell-based;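 further: luciferase reporter driven by Pax8 target thyroperoxidase promoter measured by SteadyGlo luminescence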
[18] = test system: Jurkat; assay: blockers of NF-kB activation in T cells – Jurkat, luciferase reporter, luminescence, B- and T-cell, dose response (AID 489004); format: functional, cell-based; conditions: Homo sapiens;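 further: NF-kB luciferase reporter Jurkat cells stimulated with PMA plus ionomycin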
[19] = loss of viability in HepG2 cells – cell-based, CellTiter-Glo, cherry-picked, cytotoxicity control for Shn3 inhibitor project, dose response (AID 624134); format: functional
[20] = COV362 cell viability loss – plate reader, dry powder, SA12, cytotoxicity control for PAX8 inhibitor project, dose response (AID 743144); format: functional, cell-based
[21] = PAX5 cellular inhibition readout – cell-based, plate reader, dry powder samples, selectivity assay for PAX8 inhibitor project, dose response (AID 743047); format: functional;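 further: HEK293 cells carrying a Pax5 driven CD19 promoter luciferase reporter; potency of inhibitors that lower reporter luminescence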
[22] = Shn3 3'UTR reporter signal decrease – cell-based, Clone20 osteoblasts, firefly luciferase, cherry-pick, set 2, Schnurri-3 inhibitor project, dose response (AID 720490); format: functional;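 further: actives lower the luminescence signal as inhibitors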
[23] = HEK-293T viability loss, compound-treated – cell-based, uHTS hits, cytotoxicity control for B/T-cell NF-kB inhibitor project, dose response (AID 489019); format: functional;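 further: IC50 reflects cytotoxicity as loss of cell viability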
[24] = inhibitors acting on PAX2 in cells – cell-based, plate reader, dry powder samples, selectivity assay for PAX8 inhibitor project, dose response (AID 743048); format: functional;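 further: HEK293 cells carrying a WT1 promoter luciferase reporter driven by expressed Pax2; potency is for inhibition of Pax2 driven reporter signal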
[25] = toxicity toward immortalized ovarian surface epithelium – cell-based, plate reader, dry powder samples, cytotoxicity control for PAX8 inhibitor project, dose response (AID 743045); format: functional
[26] = PAX8-dependent cell viability loss – plate reader, dry powder, dose response (AID 743049); format: functional, cell-based
[27] = IGROV1 cell killing – plate reader, dry powder samples, PAX8 inhibitor project, dose response (AID 743043); format: functional, cell-based; conditions: IGROV-1
[28] = test system: Escherichia coli; assay: microbe, parasite or virus in culture
[29] = molecular target: Acyl-homoserine lactone acylase PvdQ (Pseudomonas aeruginosa (strain LESB58), UniProt Q9I194); assay: PvdQ acylase enzyme activity blockers – biochemical, fluorescence, plate reader and imaging, cherry-picks, dose response (AID 493231)
[30] = test system: HeLa; assay: toxicity to human HeLa cells – cell-based, 48 h, plate reader, cherry-picks, cytotoxicity control, dose response (AID 504942); format: functional
[31] = molecular target: CAAX prenyl protease 2 (Saccharomyces cerevisiae S288c, UniProt Q03530); format: biochemical
[32] = molecular target: CAAX prenyl protease 2 (Homo sapiens, UniProt Q9Y256); assay: inhibition of Ras-converting CAAX protease Rce1 – biochemical, yeast membranes, quenched-peptide fluorescence, cherry-pick, dose response (AID 588849)
[33] = alpha-synuclein stem-loop luciferase translation blockers – H4 neuroglioma cells, luminescence, confirmation (AID 1988); format: functional, cell-based
[34] = test system: HEK293; assay: SAR Analysis of small molecule inhibitors of T-cell specific antigen receptor-induced NF-kB activation in a HEK-293T cell line using a luminescence assay - Set 2. [Related pubchem assays (depositor defined):AID435003, AID435012, AID489026]; format: functional, cell-based; conditions: Homo sapiens
[35] = Fluorescence-based cell-based high throughput dose response assay for inhibitors of the interaction of nucleotide-binding oligomerization domain containing 2 (NOD2) and the receptor-interacting serine-threonine kinase 2 (RIPK2).; format: functional; conditions: Homo sapiens
[36] = non-specific 3'UTR reporter inhibition in Clone20-Shn3RL – cell-based, Renilla luciferase, cherry-picked, counter-screen for Shn3 inhibitor project, dose response (AID 624133); format: functional
[37] = test system: Jurkat; assay: SAR Analysis of small molecule inhibitors of T-cell specific antigen receptor-induced NF-kB activation in a Jurkat cell line using a luminescence assay - Set 2. [Related pubchem assays (depositor defined):AID435003, AID435012, AID465]; format: functional, cell-based; conditions: Homo sapiens
[38] = test system: HEK293; assay: HEK293T cell viability loss, resazurin readout – resazurin fluorescence, cytotoxicity control for NF-kB activator project, SAR follow-up (AID 493251); format: functional, cell-based; conditions: Homo sapiens
[39] = molecular target: Phospholipase D1 (Homo sapiens, UniProt Q13393); assay: cellular phospholipase D1 inhibition IC50 – cell-based, dose response (AID 602151); format: functional;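 further: cellular PLD1 assay in Calu-1 cells stimulated with PMA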
[40] = molecular target: Phospholipase D2 (Homo sapiens, UniProt O14939); assay: cellular phospholipase D2 inhibition IC50 – cell-based, dose response (AID 602147); format: functional;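 further: cellular assay in HEK293 cells overexpressing GFP-tagged PLD2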
Phospholipase D2, sequence (O14939 whole entry): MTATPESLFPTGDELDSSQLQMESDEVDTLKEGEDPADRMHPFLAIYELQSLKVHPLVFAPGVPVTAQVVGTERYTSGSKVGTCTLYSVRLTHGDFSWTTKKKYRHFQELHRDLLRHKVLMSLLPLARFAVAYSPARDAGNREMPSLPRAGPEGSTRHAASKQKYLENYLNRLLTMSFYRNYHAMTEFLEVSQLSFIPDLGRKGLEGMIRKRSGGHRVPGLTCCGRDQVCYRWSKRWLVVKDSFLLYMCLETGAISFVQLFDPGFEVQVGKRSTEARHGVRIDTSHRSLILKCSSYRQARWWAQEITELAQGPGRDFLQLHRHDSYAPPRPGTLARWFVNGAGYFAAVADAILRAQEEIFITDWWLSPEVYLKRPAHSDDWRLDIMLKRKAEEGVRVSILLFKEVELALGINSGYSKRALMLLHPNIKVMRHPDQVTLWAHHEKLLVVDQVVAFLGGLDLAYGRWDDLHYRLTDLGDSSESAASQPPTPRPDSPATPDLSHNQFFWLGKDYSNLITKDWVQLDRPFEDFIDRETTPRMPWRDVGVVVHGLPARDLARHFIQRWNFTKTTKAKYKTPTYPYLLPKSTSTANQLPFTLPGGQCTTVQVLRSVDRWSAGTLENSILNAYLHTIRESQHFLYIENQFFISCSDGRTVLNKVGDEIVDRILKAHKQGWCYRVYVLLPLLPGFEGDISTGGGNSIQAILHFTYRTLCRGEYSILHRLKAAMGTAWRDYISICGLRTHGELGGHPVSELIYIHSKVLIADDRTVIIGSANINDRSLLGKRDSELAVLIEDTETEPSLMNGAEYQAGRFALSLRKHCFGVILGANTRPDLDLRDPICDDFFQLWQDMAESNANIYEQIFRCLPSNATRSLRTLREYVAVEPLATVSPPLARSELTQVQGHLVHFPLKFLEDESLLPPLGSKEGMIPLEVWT

Paired box protein Pax-8, sequence (Q06710 whole entry): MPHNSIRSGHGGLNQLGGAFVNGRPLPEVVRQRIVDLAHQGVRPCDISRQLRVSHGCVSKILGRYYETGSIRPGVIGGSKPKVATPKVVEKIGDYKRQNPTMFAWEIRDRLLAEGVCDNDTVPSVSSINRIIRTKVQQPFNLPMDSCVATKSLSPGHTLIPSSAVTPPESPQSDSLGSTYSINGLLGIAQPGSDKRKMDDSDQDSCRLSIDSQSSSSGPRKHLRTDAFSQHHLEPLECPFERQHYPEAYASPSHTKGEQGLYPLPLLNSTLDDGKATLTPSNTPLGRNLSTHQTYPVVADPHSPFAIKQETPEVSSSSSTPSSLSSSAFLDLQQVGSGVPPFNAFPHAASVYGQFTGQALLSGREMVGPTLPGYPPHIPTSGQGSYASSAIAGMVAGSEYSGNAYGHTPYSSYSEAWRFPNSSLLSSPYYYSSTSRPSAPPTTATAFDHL
Mu-type opioid receptor, sequence (P35372 whole entry): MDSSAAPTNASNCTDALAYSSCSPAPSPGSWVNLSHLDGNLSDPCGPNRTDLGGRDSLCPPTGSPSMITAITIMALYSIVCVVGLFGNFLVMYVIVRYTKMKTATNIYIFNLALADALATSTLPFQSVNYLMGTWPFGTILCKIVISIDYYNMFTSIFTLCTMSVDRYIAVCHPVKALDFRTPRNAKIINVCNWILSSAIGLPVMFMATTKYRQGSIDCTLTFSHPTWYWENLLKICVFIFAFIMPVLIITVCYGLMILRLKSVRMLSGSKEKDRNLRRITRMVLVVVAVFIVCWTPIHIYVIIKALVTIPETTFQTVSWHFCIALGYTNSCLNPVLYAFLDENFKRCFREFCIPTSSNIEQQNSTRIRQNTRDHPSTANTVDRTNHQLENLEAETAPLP
CAAX prenyl protease 2 (Saccharomyces cerevisiae S288c, UniProt Q03530), sequence (Q03530 whole entry): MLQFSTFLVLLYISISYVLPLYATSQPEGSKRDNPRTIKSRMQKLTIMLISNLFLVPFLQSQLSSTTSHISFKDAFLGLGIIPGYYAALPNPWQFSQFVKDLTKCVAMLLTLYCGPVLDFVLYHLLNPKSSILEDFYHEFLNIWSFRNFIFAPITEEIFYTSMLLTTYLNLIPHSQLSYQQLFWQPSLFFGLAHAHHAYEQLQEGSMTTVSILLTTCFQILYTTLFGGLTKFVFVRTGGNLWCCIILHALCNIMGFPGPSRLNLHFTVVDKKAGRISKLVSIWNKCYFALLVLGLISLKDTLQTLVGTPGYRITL
5-hydroxytryptamine receptor 5A, sequence (P47898 whole entry): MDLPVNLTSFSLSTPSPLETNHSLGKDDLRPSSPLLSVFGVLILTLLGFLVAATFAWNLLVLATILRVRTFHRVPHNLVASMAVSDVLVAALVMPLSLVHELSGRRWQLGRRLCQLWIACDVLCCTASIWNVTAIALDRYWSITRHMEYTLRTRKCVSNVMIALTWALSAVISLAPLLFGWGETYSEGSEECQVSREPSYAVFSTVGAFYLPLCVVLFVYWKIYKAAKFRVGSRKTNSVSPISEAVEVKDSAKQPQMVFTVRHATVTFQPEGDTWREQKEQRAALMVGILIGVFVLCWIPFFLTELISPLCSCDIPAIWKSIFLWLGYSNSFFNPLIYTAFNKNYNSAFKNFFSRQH
CAAX prenyl protease 2 (Homo sapiens, UniProt Q9Y256), sequence (Q9Y256 whole entry): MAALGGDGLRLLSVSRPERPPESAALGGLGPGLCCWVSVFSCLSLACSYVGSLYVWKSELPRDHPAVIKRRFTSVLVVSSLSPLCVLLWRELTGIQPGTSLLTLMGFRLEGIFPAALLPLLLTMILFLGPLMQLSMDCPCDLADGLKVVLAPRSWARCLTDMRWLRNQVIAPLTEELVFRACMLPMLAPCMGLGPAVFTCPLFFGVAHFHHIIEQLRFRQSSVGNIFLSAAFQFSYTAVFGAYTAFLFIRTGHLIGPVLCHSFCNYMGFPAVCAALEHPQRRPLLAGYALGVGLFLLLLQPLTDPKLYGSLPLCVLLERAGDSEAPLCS
Delta-type opioid receptor, sequence (P41143 whole entry): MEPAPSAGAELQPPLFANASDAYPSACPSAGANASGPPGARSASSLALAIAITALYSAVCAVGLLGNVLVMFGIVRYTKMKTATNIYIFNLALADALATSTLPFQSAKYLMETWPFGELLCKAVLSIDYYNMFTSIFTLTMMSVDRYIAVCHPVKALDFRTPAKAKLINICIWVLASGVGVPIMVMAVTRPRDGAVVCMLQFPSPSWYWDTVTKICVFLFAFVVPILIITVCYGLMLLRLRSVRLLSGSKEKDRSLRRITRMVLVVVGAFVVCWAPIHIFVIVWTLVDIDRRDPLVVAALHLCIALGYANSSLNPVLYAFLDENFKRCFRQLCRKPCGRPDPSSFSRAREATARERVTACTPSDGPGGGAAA
Acyl-homoserine lactone acylase PvdQ, sequence (Q9I194 24-193 limits assumed): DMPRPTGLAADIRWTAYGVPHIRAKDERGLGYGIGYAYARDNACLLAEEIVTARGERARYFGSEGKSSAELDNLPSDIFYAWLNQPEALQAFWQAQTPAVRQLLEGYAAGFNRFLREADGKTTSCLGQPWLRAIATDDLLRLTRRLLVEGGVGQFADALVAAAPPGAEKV
Acyl-homoserine lactone acylase PvdQ, sequence (Q9I194 217-762 limits assumed): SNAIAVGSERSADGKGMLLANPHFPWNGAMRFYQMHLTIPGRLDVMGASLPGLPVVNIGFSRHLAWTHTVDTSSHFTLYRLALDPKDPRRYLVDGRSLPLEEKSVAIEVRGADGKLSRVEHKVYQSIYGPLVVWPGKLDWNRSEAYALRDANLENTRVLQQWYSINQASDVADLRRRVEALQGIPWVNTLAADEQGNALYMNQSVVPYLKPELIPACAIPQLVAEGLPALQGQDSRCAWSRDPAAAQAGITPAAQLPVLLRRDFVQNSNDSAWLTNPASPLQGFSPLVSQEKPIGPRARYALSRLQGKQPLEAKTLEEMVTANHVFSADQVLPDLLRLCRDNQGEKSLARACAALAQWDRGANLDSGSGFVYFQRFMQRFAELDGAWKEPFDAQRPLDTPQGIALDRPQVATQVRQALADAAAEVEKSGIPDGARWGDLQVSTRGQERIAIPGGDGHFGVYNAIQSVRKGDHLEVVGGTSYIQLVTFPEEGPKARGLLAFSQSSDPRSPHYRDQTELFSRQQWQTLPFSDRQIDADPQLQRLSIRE
Phospholipase D1, sequence (Q13393 whole entry): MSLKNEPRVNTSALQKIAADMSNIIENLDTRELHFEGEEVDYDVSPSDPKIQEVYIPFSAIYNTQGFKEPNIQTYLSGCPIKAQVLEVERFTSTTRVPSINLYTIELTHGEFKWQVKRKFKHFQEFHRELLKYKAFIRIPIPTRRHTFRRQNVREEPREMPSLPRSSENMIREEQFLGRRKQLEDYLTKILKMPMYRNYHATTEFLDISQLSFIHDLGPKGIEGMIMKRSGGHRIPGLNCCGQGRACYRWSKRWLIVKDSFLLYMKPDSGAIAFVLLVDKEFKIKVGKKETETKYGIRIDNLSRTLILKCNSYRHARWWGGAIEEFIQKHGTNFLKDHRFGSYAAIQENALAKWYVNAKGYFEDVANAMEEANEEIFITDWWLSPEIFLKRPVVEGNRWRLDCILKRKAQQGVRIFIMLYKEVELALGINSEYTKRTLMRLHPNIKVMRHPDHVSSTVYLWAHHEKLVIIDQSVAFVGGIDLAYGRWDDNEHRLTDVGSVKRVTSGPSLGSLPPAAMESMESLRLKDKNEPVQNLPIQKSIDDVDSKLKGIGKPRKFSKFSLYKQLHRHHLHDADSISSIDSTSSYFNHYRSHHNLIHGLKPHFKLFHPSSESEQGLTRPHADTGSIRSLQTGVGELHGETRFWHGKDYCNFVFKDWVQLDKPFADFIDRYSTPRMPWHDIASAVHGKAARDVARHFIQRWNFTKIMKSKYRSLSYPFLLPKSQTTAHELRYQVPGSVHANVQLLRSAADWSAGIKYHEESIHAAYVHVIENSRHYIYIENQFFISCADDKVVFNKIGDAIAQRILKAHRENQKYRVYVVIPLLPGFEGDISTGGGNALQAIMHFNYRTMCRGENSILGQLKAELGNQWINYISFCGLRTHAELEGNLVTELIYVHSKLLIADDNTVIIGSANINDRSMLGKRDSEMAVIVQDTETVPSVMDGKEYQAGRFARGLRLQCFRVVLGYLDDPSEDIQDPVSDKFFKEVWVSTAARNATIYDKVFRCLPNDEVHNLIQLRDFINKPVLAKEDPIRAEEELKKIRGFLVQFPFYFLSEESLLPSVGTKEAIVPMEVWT

Compound: O=Cc1cc2ccccc2nc1SCc1ccc(Cl)c(Cl)c1
- EC50 [1]: 0.279 µM (active)
- EC50 [2]: > 120 µM (not active)
- AC50 [3]: 2.82 µM (active)
- EC50 [4]: < 0.104 µM (active)
- EC50 [5]: 0.567 µM (active)
- EC50 [6]: 0.396 µM (inconclusive)
- IC50 [7]: > 80 µM (inactive)
- EC50 [8]: > 120 µM (not active)
- EC50 [9]: 0.777 µM (active)

Compound: CCOC(=O)C1(CCOc2ccccc2)CCN(Cc2cnc(C)s2)CC1
- EC50 [10]: > 92.5 µM (inactive)
- EC50 [11]: > 92.5 µM (inactive)
- EC50 [12]: 0.237 µM (active)
- EC50 [13]: > 92.5 µM (inactive)

Compound: O=C(NCCc1ccccc1)c1ccc2c(c1)OCCCO2
- IC50 [14]: > 39.8 µM (not active)
- EC50 [15]: < 0.16 µM (active)
- AC50 [16]: 1.05 µM (active)
- AC50 [17]: 2.38 µM (active)
- IC50 [18]: 0.64 µM (active)
- AC50 [19]: > 70 µM (inactive)
- AC50 [20]: 84.9 µM (active)
- AC50 [21]: 2.29 µM (active)
- AC50 [22]: 3.96 µM (active)
- IC50 [23]: > 80 µM (inactive)
- AC50 [24]: 2 µM (active)
- AC50 [25]: 14.2 µM (active)
- AC50 [26]: 58.7 µM (active)
- AC50 [27]: 40.3 µM (active)
- AC50 [28]: 34.1 µM (active)

Compound: COC(=O)c1ccc(/C=C(\C#N)c2ccccn2)cc1
- AC50 [29]: 2.61 µM (active)
- AC50 [30]: 103 µM (active)

Compound: O=C(c1cc(-c2ccccc2)nc2ccccc12)N1CCN(c2ccccn2)CC1
- AC50 [31]: 4.89 µM (active)
- AC50 [32]: 17 µM (active)

Compound: CC(=O)N1CCN(c2ccc(NC(=O)c3ccc([N+](=O)[O-])o3)cc2Cl)CC1
- AC50 [16]: 1.08 µM (active)
- EC50 [33]: 9.29 µM (active)
- EC50 [2]: 11.1 µM (active)
- AC50 [17]: 5.83 µM (active)
- IC50 [34]: 22 µM (inactive)
- AC50 [19]: 48.1 µM (active)
- IC50 [35]: 49.8 µM (inactive)
- AC50 [36]: 11.2 µM (active)
- EC50 [8]: 8.31 µM (active)
- IC50 [37]: 27.3 µM (inactive)
- IC50 [38]: 55.3 µM (inactive)

Compound: O=C(NCCN1CCC2(CC1)C(=O)Oc1ccccc12)c1cnc2ccccc2c1
- IC50 [39]: 20 µM (inactive)
- IC50 [40]: 20 µM (active)
